Source: PMC7083880 (Nature Communications, 2020)

Experiments:
HeLa cells [1] = assay: 2D differential gel electrophoresis (2D-DIGE) of whole proteome; type: cell-based, human
FTSJ1 = molecular target: T1, FTSJ1 (Homo sapiens, UniProt Q9UET6); assay: DAP affinity column chromatography; type: binding; conditions: HeLa cell extract
T1 construct: host or cells: HeLa
T1 sequence (Q9UET6 1-329): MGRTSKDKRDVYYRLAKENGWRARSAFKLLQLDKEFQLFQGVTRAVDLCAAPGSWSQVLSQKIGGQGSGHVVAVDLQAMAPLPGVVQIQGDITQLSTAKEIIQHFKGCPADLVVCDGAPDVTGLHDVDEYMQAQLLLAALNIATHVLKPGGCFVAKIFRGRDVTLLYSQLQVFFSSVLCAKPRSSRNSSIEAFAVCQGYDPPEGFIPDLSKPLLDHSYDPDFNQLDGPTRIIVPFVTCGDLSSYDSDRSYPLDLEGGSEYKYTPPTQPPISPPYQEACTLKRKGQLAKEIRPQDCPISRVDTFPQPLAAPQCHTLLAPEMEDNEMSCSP
Source text: (§1) Firefly luciferase from HEK293FT cells transfected with the Fluc-int-UGA construct was immunoprecipitated and digested with trypsin. The MS/MS spectrum of the peptide containing the PTC position and the sequence determination are shown. The upper red and blue sequences indicate the amino acids validated, respectively, by detection of Nter and Cter peptide fragments (b and y ion series). Peptide fragments y6 and y7 clearly identify tryptophan (W) at the PTC position. The black peaks correspond to non-attributed mass-to-charge ratio (m/z) values. […] Readthrough efficiency was determined by measuring luciferase activity in HeLa cells co-transfected with the firefly luciferase construct described in Fig. 1b and with increasing amounts of an expression vector for either FTSJ1 or CTU1 (0.5, 1, or 2 µg). The empty expression vector (E.v.) was used as control. […] The experiment was performed twice and the results of both experiments (Exp1 and Exp2) are shown. c Western blot analysis of FTSJ1 and CTU1. d 2′-O-methylation analysis of tRNA^Trp, tRNA^SER, and tRNA^GLN by RiboMethSeq. […] A molecular weight marker is indicated to the left of each gel. p-values (p) were calculated using Student’s t-test. Source data are provided as a Source Data file.
The eluate was analyzed by western blotting for the presence of various proteins, including FTSJ1. […]

HeLa cells [2] = assay: Toxicity assay: adenylate kinase activity in culture medium; type: cell-based, human
Procedure: The toxicity assay was performed 24 h after starting cell treatment. The cell culture supernatant was centrifuged at 6000×g for 10 min to pellet cells and cell debris. One-twentieth of the supernatant was then used to measure adenylate kinase activity according to the supplier’s protocol (Lonza Biosciences, Basel, Switzerland).

[3] = test system: tRNA 2′-O-methylation in HeLa cells; assay: tRNA 2′-O-methylation analysis by RiboMethSeq; type: cell-based, human; conditions: 25 µM DAP, 24 h
Source text: as §1
HeLa cells were incubated with DMSO or DAP before extraction of small RNAs (which include tRNAs). RiboMethSeq analysis of human tRNAs was then performed. […] Although the human targets of FTSJ1 remain poorly characterized, modification of Cm34 in tRNA^Trp has been attributed to FTSJ1 (ref. [41]). […] This is consistent with DAP-dependent inhibition of FTSJ1 activity. The third hit was 2′-O-methylation of tRNA^Ser at position Gm18, attributed to TARBP1 activity.
The detailed protocol and a description of the RiboMethSeq assay are provided elsewhere.

Nc1nc(N)c2[nH]cnc2n1 [DAP, 2,6-diaminopurine]
Pearson correlation coefficient of proteome profiles DAP vs DMSO (HeLa cells [1]): 0.94
Binding to FTSJ1 (affinity column, western blot of eluate) (FTSJ1): binds to FTSJ1
Adenylate kinase activity in culture medium (HeLa cells [2]; DAP 0.39, 24 h, average): 387040
Adenylate kinase activity in culture medium (HeLa cells [2]; DAP 0.39, 24 h, experiment 1): 426825
Adenylate kinase activity in culture medium (HeLa cells [2]; DAP 0.39, 24 h, experiment 2): 354564
Adenylate kinase activity in culture medium (HeLa cells [2]; DAP 0.39, 24 h, experiment 3): 379730
Adenylate kinase activity in culture medium (HeLa cells [2]; DAP 0.78, 24 h, average): 423131
Adenylate kinase activity in culture medium (HeLa cells [2]; DAP 0.78, 24 h, experiment 1): 391755
Adenylate kinase activity in culture medium (HeLa cells [2]; DAP 0.78, 24 h, experiment 2): 521708
Adenylate kinase activity in culture medium (HeLa cells [2]; DAP 0.78, 24 h, experiment 3): 355930
Adenylate kinase activity in culture medium (HeLa cells [2]; DAP 100, 24 h, average): 360341
Adenylate kinase activity in culture medium (HeLa cells [2]; DAP 100, 24 h, experiment 1): 374460
Adenylate kinase activity in culture medium (HeLa cells [2]; DAP 100, 24 h, experiment 2): 518986
Adenylate kinase activity in culture medium (HeLa cells [2]; DAP 100, 24 h, experiment 3): 187576
Adenylate kinase activity in culture medium (HeLa cells [2]; DAP 300, 24 h, average): 386608
Adenylate kinase activity in culture medium (HeLa cells [2]; DAP 300, 24 h, experiment 1): 380370
Adenylate kinase activity in culture medium (HeLa cells [2]; DAP 300, 24 h, experiment 2): 536556
Adenylate kinase activity in culture medium (HeLa cells [2]; DAP 300, 24 h, experiment 3): 242898
Adenylate kinase activity in culture medium (HeLa cells [2]; DAP 600, 24 h, average): 369027
Adenylate kinase activity in culture medium (HeLa cells [2]; DAP 600, 24 h, experiment 1): 393840
Adenylate kinase activity in culture medium (HeLa cells [2]; DAP 600, 24 h, experiment 2): 349368
Adenylate kinase activity in culture medium (HeLa cells [2]; DAP 600, 24 h, experiment 3): 363874
Adenylate kinase activity in culture medium (HeLa cells [2]; DAP 1200, 24 h, average): 443419
Adenylate kinase activity in culture medium (HeLa cells [2]; DAP 1200, 24 h, experiment 1): 462690
Adenylate kinase activity in culture medium (HeLa cells [2]; DAP 1200, 24 h, experiment 2): 487071
Adenylate kinase activity in culture medium (HeLa cells [2]; DAP 1200, 24 h, experiment 3): 380497
Adenylate kinase activity in culture medium (HeLa cells [2]; DAP 2400, 24 h, average): 405551
Adenylate kinase activity in culture medium (HeLa cells [2]; DAP 2400, 24 h, experiment 1): 480750
Adenylate kinase activity in culture medium (HeLa cells [2]; DAP 2400, 24 h, experiment 2): 416958
Adenylate kinase activity in culture medium (HeLa cells [2]; DAP 2400, 24 h, experiment 3): 318945
2′-O-methylation of tRNA^Trp at position 34 [3]: Notably affected
Cm32 methylation of tRNA^Gln [3]: reduced Cm32 methylation
Level of tRNA 2′-O-methylation [3]: significantly lower for three tRNAs
